The source of these data is US20200405603A1, “COMPOSITIONS AND METHODS FOR TREATING SKIN CONDITIONS USING INFRARED LIGHT AND RESORCINOLS” (Johnson & Johnson Consumer Inc., priority 2019, published 2020).

This test has as its system lamin b1 (LMNB1) gene expression. Kind of test: lamin B1 (LMNB1) gene expression assay (qPCR) in skin equivalents, with TNF-α to simulate photoaged skin. It counts as cell-based, human. Here is the method:
The effects of IR light, hexyl resorcinol (HR), and combinations thereof on lamin B1 gene expression in the presence of TNF-α was tested as follows. TNF-α is known to play a primary role in the inflammation process upon ultraviolet (UV) irradiation and is stimulated by UVB.
Three human full-thickness skin equivalents (MatTek, Ashland, Mass.) were used for each treatment. The skin equivalents were treated with one of the following: (i) 100 ng/ml TNF-α in a medium (1× phenol-red free Hank's buffered saline solution (HBSS), (ii) a placebo formulation, (iii) a hexyl resorcinol formulation containing 0.5 weight percent hexyl resorcinol (HR) in the placebo formulation, (iv) infrared (IR) light (wavelength 830 nm) at 0.5 mW/cm^2 for 10 min (i.e. fluence at 0.3 J/cm^2), or (iv) combinations of these. TNF-α was used to simulate photoaged skin.
The placebo formulation contained the ingredients in Table 1. The hexyl resorcinol formulation contained the same ingredients plus 0.5 wt % hexyl resorcinol.
For the combination treatments, the formulations were first topically applied to the skin equivalents and left to stand for two hours. Next, the skin equivalents were irradiated with the IR light. Then the skin equivalents were incubated with or without 100 ng/ml TNF-α in the phenol-red-free medium for 24 hours.
Afterwards, the skin equivalents were collected in RNAlater solution (ThermoFisher Scientific, Bridgewater, N.J., USA) for RNA purification. The total RNAs were purified using a Qiagen RNeasy kit (Valencia, Calif., USA) following the manufacturer's instructions. RNA concentration was assessed using a Nanodrop 2000 spectrophotometer (ThermoFisher Scientific, Bridgewater, N.J., USA). Complementary DNA (cDNA) was performed using a High Capacity cDNA kit (ThermoFisher Scientific, Bridgewater, N.J., USA). TaqMan® gene expression assays for lamin b1 (LMNB1) and TATA-Box Binding Protein (TBP) and TaqMan® gene expression master mix from ThermoFisher Scientific (Bridgewater, N.J., USA) were used. Realtime polymerase chain reactions (qPCRs) of each treatment were performed using 5 ul of the 15 ul mixture of cDNAs pooled from three equivalent tissue replicates (i.e. mixing 5 ul of cDNA from each equivalent replicate). qPCRs were performed using a QuantStudio™ 7 Flex System (ThermoFisher Scientific, Bridgewater, N.J., USA). The RQ (relative quantitation) was calculated using the formula 2^-ΔΔCt.
The effects of red light (wavelength 640 nm, 0.3 J/cm^2) and HR on lamin B1 gene expression in the presence of TNF-α was tested using the same method as Example 1.

Where [1] appears, read: Example 2, treatment alone (no light, no other treatment).
Where [2] appears, read: treatment alone (no light, no other treatment), human full-thickness skin equivalents.

In the case of `CCCCCCc1ccc(O)cc1O` [hexyl resorcinol, 4-hexylresorcinol], the “change in lamin B1 gene expression” value (combination with red light) is “no substantial change”.
Consider TNF-α, for which, under setting [1], the “Induced LMNB1 (RQ)” value is reported as 1.55 RQ and the “Induced LMNB1 vs Untreated Control (RQ fold changes)” value is listed as 0.55 RQ fold changes. In addition, under setting [2], the “Difference of Induced LMNB1 vs Untreated Control (RQ fold changes)” value is 0.55 RQ fold changes and the “LMNB1 Induction (RQ)” value was 1.55 RQ.
